# ChEMBL document CHEMBL1201862, “PubChem BioAssay data set” (2004)
# Active and inactive are the calls of the source.
# What was measured:
# [1] = target: T1, Mannose-6-phosphate isomerase (Homo sapiens, UniProt P34949); experiment: MPI inhibition at elevated mannose 6-phosphate – biochemical, fluorescence intensity, high mannose 6-phosphate, primary screen (AID 1220)
# T1 sequence (P34949 whole entry): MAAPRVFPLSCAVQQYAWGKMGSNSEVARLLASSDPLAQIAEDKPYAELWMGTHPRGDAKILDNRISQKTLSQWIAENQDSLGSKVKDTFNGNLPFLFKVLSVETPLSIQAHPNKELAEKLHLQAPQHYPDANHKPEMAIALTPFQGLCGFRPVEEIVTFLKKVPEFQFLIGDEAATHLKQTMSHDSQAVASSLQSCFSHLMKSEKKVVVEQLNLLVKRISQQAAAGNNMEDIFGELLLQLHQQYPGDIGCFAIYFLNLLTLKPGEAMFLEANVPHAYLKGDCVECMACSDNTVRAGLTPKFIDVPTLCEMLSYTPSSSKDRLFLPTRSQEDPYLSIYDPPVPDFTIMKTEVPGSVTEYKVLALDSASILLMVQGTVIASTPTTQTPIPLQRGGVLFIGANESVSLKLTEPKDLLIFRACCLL
# [2] = target: Hepatocyte growth factor receptor (Homo sapiens, UniProt P08581); type: functional;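 note: kinase panel profiling across the kinome, with MET as the panel member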
# [3] = target: Mitogen-activated protein kinase 14 (Homo sapiens, UniProt Q16539); type: functional;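 note: part of a kinome-wide panel, MAPK14 entry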
# [4] = target: Calcium/calmodulin-dependent protein kinase type II subunit alpha (Homo sapiens, UniProt Q9UQM7); experiment: Navigating the Kinome. Panel member name: CAMK2A; type: functional
# Sequence of Calcium/calmodulin-dependent protein kinase type II subunit alpha (Q9UQM7 whole entry): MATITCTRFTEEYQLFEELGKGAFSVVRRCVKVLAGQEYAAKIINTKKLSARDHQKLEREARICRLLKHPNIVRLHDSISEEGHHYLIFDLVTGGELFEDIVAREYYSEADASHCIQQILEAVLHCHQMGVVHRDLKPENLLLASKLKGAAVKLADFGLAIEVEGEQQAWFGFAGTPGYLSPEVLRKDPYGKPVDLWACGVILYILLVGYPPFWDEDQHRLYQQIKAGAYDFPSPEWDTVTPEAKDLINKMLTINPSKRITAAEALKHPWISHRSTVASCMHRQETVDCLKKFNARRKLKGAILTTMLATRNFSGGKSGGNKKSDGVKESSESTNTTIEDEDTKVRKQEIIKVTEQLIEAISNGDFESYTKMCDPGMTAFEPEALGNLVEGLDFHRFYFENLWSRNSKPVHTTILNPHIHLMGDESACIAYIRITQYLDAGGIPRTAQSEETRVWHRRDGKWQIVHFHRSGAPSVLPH
# [5] = target: Dual specificity protein kinase CLK4 (Homo sapiens, UniProt Q9HAZ1); type: functional
# [6] = target: Macrophage-stimulating protein receptor (Homo sapiens, UniProt Q04912); experiment: Navigating the Kinome. Panel member name: MST1R; type: functional
# Sequence of Macrophage-stimulating protein receptor (Q04912 25-304 limits assumed): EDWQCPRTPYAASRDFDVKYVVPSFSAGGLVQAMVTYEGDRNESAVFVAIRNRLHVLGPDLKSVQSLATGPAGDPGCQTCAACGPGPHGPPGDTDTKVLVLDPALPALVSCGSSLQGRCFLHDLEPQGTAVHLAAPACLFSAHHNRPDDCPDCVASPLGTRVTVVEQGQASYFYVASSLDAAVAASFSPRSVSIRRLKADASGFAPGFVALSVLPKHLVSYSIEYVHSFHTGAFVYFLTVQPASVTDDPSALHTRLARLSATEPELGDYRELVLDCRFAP
# Sequence of Macrophage-stimulating protein receptor (Q04912 310-1400 limits assumed): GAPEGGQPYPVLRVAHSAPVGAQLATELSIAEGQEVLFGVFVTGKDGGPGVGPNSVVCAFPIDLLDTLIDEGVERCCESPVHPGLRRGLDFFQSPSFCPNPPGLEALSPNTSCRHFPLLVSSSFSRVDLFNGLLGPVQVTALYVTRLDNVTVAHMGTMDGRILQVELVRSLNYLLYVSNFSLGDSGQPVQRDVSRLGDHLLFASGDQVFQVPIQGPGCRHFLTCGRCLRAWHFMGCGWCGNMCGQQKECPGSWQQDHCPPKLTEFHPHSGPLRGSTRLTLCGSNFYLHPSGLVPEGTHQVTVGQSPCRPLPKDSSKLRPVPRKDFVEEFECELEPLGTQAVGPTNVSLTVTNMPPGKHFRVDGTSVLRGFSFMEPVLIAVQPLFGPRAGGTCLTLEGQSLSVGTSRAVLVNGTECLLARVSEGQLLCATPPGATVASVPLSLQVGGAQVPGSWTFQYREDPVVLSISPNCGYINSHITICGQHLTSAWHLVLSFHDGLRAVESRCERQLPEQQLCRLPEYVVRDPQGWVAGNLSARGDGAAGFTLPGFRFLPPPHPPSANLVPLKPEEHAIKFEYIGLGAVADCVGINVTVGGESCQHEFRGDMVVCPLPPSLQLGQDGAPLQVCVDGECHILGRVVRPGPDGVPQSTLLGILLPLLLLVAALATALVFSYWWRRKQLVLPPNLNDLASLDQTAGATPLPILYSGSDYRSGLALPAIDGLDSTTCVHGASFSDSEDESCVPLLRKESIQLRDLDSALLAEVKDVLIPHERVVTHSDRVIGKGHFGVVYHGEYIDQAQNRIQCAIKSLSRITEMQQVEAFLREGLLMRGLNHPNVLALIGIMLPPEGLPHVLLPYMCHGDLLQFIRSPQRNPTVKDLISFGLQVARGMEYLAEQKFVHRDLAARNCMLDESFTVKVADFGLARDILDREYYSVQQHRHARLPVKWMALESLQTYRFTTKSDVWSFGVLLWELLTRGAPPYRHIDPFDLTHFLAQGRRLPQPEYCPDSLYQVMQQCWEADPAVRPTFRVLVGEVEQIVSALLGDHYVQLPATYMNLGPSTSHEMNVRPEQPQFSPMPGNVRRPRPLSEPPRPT
# [7] = target: Platelet-derived growth factor receptor beta (Homo sapiens, UniProt P09619); type: functional;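 note: value comes from a kinome panel, with PDGFRB tested as one panel member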
# [8] = target: Activated CDC42 kinase 1 (Homo sapiens, UniProt Q07912); experiment: Navigating the Kinome. Panel member name: ACK1; type: functional
# [9] = target: cAMP-dependent protein kinase catalytic subunit alpha (Homo sapiens, UniProt P17612); type: functional
# [10] = target: Activin receptor type-1 (Homo sapiens, UniProt Q04771); experiment: Navigating the Kinome. Panel member name: ACVR1; type: functional
# [11] = target: Mitogen-activated protein kinase kinase kinase 20 (Homo sapiens, UniProt Q9NYL2); type: functional
# [12] = target: MAP kinase-interacting serine/threonine-protein kinase 2 (Homo sapiens, UniProt Q9HBH9); type: functional
# [13] = target: Casein kinase II subunit alpha (Homo sapiens, UniProt P68400); type: functional
# Sequence of Casein kinase II subunit alpha (P68400 whole entry): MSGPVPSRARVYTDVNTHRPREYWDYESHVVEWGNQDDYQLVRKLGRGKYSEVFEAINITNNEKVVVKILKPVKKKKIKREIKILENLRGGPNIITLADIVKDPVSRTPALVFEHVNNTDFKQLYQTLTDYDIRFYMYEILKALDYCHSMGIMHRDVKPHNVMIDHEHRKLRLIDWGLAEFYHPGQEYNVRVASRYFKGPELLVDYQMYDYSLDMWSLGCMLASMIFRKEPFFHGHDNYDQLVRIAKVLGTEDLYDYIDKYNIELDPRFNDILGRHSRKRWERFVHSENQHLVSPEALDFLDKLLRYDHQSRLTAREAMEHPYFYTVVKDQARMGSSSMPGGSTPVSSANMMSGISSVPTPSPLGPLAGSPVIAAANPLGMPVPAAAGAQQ
# [14] = target: MAP kinase-activated protein kinase 2 (Homo sapiens, UniProt P49137); type: functional;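 note: measured as one member of a kinome-wide kinase panel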
# [15] = target: Interleukin-1 receptor-associated kinase 4 (Homo sapiens, UniProt Q9NWZ3); type: functional
# [16] = target: Serine/threonine-protein kinase 3 (Homo sapiens, UniProt Q13188); type: functional;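 note: measured as one member of a kinome-wide kinase panel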
# [17] = target: Cell division cycle 7-related protein kinase (Homo sapiens, UniProt O00311); type: functional;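 note: value obtained from a kinome-wide kinase panel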
# Sequence of Cell division cycle 7-related protein kinase (O00311 whole entry): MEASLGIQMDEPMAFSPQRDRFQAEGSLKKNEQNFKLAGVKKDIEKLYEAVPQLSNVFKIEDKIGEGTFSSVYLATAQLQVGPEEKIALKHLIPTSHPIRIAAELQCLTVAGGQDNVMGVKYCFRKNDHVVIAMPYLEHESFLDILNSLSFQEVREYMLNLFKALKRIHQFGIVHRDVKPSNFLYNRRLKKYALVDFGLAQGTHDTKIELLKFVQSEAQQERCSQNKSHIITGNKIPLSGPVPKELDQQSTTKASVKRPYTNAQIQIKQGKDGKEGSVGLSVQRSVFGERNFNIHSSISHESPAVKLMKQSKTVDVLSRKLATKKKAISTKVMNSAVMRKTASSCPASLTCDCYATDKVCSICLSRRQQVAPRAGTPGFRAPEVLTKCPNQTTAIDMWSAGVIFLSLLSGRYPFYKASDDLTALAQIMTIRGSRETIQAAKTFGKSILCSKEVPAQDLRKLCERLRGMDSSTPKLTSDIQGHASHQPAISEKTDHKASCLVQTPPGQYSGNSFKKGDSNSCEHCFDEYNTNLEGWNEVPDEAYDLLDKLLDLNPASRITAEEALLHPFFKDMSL
# [18] = target: Receptor tyrosine-protein kinase erbB-4 (Homo sapiens, UniProt Q15303); type: functional;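 note: ERBB4 member of a kinome-wide kinase profiling panel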
# [19] = target: RAC-gamma serine/threonine-protein kinase (Homo sapiens, UniProt Q9Y243); type: functional
# [20] = target: Serine/threonine-protein kinase PLK1 (Homo sapiens, UniProt P53350); type: functional;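 note: PLK1 measured as one member of a kinome-wide profiling panel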
# [21] = target: Calcium/calmodulin-dependent protein kinase type II subunit delta (Homo sapiens, UniProt Q13557); type: functional
# [22] = target: SRSF protein kinase 1 (Homo sapiens, UniProt Q96SB4); type: functional;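 note: measured as one member of a kinome-wide kinase profiling panel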
# Sequence of SRSF protein kinase 1 (Q96SB4 whole entry): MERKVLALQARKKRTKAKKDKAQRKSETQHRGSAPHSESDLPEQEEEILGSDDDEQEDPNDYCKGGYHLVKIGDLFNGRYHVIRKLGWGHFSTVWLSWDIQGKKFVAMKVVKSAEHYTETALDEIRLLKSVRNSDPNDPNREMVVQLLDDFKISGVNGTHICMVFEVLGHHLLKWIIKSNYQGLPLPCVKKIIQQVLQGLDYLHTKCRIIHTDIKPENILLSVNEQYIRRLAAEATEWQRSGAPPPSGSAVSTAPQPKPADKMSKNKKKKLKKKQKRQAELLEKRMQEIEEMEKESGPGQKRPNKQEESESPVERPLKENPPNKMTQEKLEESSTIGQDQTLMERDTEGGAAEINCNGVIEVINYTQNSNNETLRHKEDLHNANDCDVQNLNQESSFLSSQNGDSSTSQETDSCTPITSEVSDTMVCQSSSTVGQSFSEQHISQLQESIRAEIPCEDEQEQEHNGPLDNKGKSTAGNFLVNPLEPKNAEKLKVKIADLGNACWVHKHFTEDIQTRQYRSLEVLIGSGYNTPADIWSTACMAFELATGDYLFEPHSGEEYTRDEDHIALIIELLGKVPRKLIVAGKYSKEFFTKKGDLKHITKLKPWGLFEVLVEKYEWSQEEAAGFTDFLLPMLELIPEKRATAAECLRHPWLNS
# [23] = target: Dual specificity tyrosine-phosphorylation-regulated kinase 4 (Homo sapiens, UniProt Q9NR20); type: functional
# [24] = target: Protein-tyrosine kinase 6 (Homo sapiens, UniProt Q13882); type: functional
# [25] = target: Mitogen-activated protein kinase 13 (Homo sapiens, UniProt O15264); type: functional
# [26] = target: Non-receptor tyrosine-protein kinase TYK2 (Homo sapiens, UniProt P29597); type: functional
# Sequence of Non-receptor tyrosine-protein kinase TYK2 (P29597 whole entry): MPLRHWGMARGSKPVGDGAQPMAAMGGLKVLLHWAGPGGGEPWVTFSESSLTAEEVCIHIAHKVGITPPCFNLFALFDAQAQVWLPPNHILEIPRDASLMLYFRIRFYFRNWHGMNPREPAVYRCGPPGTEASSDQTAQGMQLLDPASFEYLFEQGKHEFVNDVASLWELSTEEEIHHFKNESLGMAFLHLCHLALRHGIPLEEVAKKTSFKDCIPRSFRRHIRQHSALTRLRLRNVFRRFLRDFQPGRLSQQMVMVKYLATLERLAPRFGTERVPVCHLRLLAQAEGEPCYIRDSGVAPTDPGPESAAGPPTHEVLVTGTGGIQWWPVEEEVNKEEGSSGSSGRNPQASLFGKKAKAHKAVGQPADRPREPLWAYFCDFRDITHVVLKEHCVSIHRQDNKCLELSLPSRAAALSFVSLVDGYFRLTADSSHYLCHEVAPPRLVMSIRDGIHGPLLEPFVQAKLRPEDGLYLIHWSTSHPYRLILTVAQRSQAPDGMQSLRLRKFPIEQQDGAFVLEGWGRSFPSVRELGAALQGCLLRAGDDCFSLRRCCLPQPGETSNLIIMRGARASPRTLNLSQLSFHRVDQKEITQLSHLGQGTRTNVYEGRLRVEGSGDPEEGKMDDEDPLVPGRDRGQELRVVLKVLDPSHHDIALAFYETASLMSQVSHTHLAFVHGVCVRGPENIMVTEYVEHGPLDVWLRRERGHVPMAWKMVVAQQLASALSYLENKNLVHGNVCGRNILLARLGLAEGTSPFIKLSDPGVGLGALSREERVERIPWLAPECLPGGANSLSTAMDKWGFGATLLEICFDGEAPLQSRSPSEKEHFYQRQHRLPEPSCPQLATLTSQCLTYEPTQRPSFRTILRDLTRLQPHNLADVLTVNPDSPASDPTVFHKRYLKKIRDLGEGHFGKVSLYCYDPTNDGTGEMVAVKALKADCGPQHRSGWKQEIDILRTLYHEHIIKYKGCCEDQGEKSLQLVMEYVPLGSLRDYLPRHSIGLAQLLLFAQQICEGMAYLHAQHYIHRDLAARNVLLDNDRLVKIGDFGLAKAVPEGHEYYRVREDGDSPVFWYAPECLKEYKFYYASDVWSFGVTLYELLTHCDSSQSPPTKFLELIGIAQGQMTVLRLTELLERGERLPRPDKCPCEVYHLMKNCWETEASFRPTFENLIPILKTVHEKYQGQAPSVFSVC
# [27] = target: Serine/threonine-protein kinase N2 (Homo sapiens, UniProt Q16513); type: functional
# [28] = target: Ribosomal protein S6 kinase beta-1 (Homo sapiens, UniProt P23443); type: functional;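 note: measured as one member of a kinome-wide profiling panel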
# [29] = target: MAP kinase-activated protein kinase 3 (Homo sapiens, UniProt Q16644); type: functional;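 note: value comes from a kinome-wide profiling panel in which MAPKAPK3 is one of the panel members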
# Sequence of MAP kinase-activated protein kinase 3 (Q16644 whole entry): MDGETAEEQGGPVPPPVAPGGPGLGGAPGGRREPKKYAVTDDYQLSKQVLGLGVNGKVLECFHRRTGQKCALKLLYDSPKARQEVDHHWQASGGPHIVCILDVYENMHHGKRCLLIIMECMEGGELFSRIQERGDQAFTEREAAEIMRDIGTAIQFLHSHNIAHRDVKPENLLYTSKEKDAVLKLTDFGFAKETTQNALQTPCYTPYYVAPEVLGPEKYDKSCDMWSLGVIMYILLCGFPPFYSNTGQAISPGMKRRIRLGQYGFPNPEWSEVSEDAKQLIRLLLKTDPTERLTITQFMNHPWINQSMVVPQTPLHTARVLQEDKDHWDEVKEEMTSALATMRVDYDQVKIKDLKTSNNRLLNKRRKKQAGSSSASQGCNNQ
# [30] = target: Tyrosine-protein kinase SYK (Homo sapiens, UniProt P43405); type: functional
# [31] = target: Serine/threonine-protein kinase 17A (Homo sapiens, UniProt Q9UEE5); type: functional
# [32] = target: Receptor tyrosine-protein kinase erbB-2 (Homo sapiens, UniProt P04626); experiment: Navigating the Kinome. Panel member name: ERBB2; type: functional
# [33] = target: Homeodomain-interacting protein kinase 2 (Homo sapiens, UniProt Q9H2X6); type: functional;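 note: measured within a kinome-wide kinase profiling panel, HIPK2 being one panel member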
# [34] = target: Fibroblast growth factor receptor 3 (Homo sapiens, UniProt P22607); type: functional
# [35] = target: Calcium/calmodulin-dependent protein kinase type II subunit beta (Homo sapiens, UniProt Q13554); type: functional
# [36] = target: Cyclin-dependent kinase 2 (Homo sapiens, UniProt P24941); type: functional;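 note: CDK2 measured as one member of a broad kinome profiling panel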
# [37] = target: Mitogen-activated protein kinase 1 (Homo sapiens, UniProt P28482); type: functional
# [38] = target: Serine/threonine-protein kinase DCLK1 (Homo sapiens, UniProt O15075); type: functional;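 note: affinity for DCLK1 (listed as DCAMKL1) measured as one member of a kinome-wide kinase profiling panel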
# [39] = target: Proto-oncogene tyrosine-protein kinase ROS (Homo sapiens, UniProt P08922); type: functional;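 note: ROS1 tested as one member of a kinome-wide kinase panel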
# [40] = target: Protein kinase C iota type (Homo sapiens, UniProt P41743); type: functional;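 note: measured within a kinome-wide kinase panel, PRKCI as panel member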
smiles,measurement,setting,value
COc1ccc(-n2c(NC(=O)c3ccco3)c(C#N)c3nc4ccccc4nc32)cc1,IC50,[1],> 50000 nM (not active)
[2H]C([2H])([2H])Oc1cccc(C(C)NC(=O)c2sc(-c3ccncc3)nc2C)c1 (stereo not given),Ki,[2],> 2510 nM (inactive)
same,Ki,[3],> 3980 nM (inactive)
same,Ki,[4],> 3980 nM (inactive)
same,Ki,[5],> 2510 nM (inactive)
same,Ki,[6],> 3980 nM (inactive)
same,Ki,[7],> 2000 nM (inactive)
same,Ki,[8],> 3980 nM (inactive)
same,Ki,[9],> 1260 nM (inactive)
same,Ki,[10],> 3980 nM (inactive)
Cc1n[nH]c2ccc(-c3cncc(OCC(N)Cc4ccc(Cl)c(Cl)c4)c3)cc12 (stereo not given),Ki,[11],7940 nM (active)
same,Ki,[12],251 nM (active)
same,Ki,[13],> 6310 nM (inactive)
same,Ki,[14],3980 nM (active)
same,Ki,[15],126 nM (active)
same,Ki,[16],63.1 nM (active)
same,Ki,[17],12.6 nM (active)
same,Ki,[18],> 3980 nM (inactive)
same,Ki,[19],3.98 nM (active)
same,Ki,[20],> 7940 nM (inactive)
same,Ki,[21],12.6 nM (active)
same,Ki,[22],> 5010 nM (inactive)
same,Ki,[23],1000 nM (active)
same,Ki,[24],> 2510 nM (inactive)
same,Ki,[25],631 nM (active)
same,Ki,[26],> 2000 nM (inactive)
same,Ki,[27],20 nM (active)
same,Ki,[28],25.1 nM (active)
same,Ki,[29],> 10000 nM (inactive)
same,Ki,[30],> 1580 nM (inactive)
same,Ki,[31],398 nM (active)
same,Ki,[32],> 1580 nM (inactive)
same,Ki,[33],126 nM (active)
same,Ki,[34],> 2000 nM (inactive)
same,Ki,[35],251 nM (active)
same,Ki,[36],25.1 nM (active)
same,Ki,[37],39.8 nM (active)
same,Ki,[38],2000 nM (active)
same,Ki,[39],631 nM (active)
same,Ki,[40],1000 nM (active)
